The results in this text go back to ChEMBL document CHEMBL5370665, “Insight from Linker Investigations: Discovery of a Novel Phenylbenzothiazole Necroptosis Inhibitor Targeting Receptor-Interacting Protein Kinase 1 (RIPK1) from a Phenoxybenzothiazole Compound with Dual RIPK1/3 Targeting Activity” (J Med Chem, 2023).

Calls of active or inactive are those of the source. The rule behind the calls is not given here.

Series [1] has as its target Receptor-interacting serine/threonine-protein kinase 3 (Homo sapiens, UniProt Q9Y572). Kind of series: Inhibition of RIPK3 phosphorylation in TSZ induced human HT-29 cells at 1 uM pretreated with compound followed by TSZ stimulation for 6 hrs by Western blot analysis. In kind it is cell-based.
Series [2] concerns Mus musculus. Kind of series: Anti-inflammatory activity against C57BL/6J mouse model of TNFalpha-induced systemic inflammatory response syndrome (SIRS) assessed as decrease in IL-6 level in brain at 1.25 to 5 mg/kg,po 2 hrs prior to mTNFalpha and z-VAD-FMK stimulation for 8 hrs by ELISA. The note with it: dose 1.25-5 mg/kg, time 10.0 hrs. The series is classed as functional, organism-based.

A further series relates to HT-29. Briefly: Anti-apoptotic activity against human HT-29 cells assessed as inhibition of TS (human TNFalpha, Smac mimetic) induced apoptosis upto 1 uM pretreated with compound followed […] for 24 hrs by CellTiter-Glo Luminescent cell viability assay. In kind it is functional, cell-based.
Series [3] deals with T1, Receptor-interacting serine/threonine-protein kinase 1 (Homo sapiens) (UniProt Q13546).
T1 sequence (whole entry): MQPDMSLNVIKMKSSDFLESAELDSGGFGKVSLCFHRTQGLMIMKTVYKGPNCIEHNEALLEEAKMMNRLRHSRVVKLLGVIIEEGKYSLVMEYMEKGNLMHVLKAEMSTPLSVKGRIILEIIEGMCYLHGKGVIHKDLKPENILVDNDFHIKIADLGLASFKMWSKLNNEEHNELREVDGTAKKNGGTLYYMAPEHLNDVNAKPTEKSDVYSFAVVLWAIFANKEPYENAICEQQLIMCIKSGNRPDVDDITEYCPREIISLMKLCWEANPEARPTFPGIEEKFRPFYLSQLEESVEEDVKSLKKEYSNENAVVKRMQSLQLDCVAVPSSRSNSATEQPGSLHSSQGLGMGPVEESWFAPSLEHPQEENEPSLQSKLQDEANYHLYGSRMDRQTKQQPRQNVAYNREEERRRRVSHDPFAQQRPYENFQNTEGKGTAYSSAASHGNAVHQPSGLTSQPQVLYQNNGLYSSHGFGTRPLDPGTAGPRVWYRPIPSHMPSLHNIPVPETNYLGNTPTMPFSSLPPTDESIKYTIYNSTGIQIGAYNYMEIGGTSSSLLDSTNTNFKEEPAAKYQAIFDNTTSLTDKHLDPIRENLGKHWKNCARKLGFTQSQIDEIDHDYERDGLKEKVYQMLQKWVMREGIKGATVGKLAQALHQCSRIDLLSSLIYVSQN
Briefly: Inhibition of RIPK1 phosphorylation in TSZ induced human HT-29 cells at 1 to 1000 nM pretreated with compound followed by TSZ stimulation for 6 hrs by Western blot analysis. The series is classed as cell-based. The note with it: dose 1-1000 nM.

For series [4], the system named is Mus musculus. Kind of series: Anti-inflammatory activity against C57BL/6J mouse model of TNFalpha-induced systemic inflammatory response syndrome (SIRS) assessed as decrease in IL-1beta level in intestine at 1.25 to 5 mg/kg,po 2 hrs prior to mTNFalpha and z-VAD-FMK stimulation for 8 hrs by ELISA. In kind it is functional, organism-based. Conditions: dose 1.25-5 mg/kg, time 10.0 hrs.

Series [5] concerns Mus musculus. Briefly: Anti-inflammatory activity against C57BL/6J mouse model of TNFalpha-induced systemic inflammatory response syndrome (SIRS) assessed as increase in survival rate at 2.5 mg/kg,po 2 hrs prior to mTNFalpha and z-VAD-FMK stimulation and measured upto 24 hrs. The series is classed as functional. Conditions: time 26 hrs.
Series [6] addresses T2, Mixed lineage kinase domain-like protein (Homo sapiens) (UniProt Q8NB16).
T2 sequence (whole entry): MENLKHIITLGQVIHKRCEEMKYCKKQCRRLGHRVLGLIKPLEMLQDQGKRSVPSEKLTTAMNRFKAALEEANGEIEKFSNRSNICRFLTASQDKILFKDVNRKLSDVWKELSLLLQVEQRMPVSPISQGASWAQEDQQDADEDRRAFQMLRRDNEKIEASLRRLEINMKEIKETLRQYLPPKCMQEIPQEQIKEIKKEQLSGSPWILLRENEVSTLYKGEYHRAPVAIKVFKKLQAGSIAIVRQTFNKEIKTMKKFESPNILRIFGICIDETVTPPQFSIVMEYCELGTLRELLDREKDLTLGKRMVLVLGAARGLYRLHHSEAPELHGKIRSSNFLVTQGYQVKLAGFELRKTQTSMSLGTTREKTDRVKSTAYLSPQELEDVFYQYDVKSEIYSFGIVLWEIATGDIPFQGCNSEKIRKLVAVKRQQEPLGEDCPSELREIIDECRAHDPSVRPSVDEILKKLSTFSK
Briefly: Inhibition of MLKL phosphorylation in TSZ induced human HT-29 cells at 1 uM pretreated with compound followed by TSZ stimulation for 6 hrs by Western blot analysis. In kind it is cell-based.

Series [7] is described as follows: Acute toxicity in mouse assessed as pathological damage in heart at 100 to 200 mg/kg,IG and measured after 14 days by H and E staining based microscopy. The series is classed as organism-based. The note with it: in vivo, po, 336 h, dose 100-200 mg/kg, time 14 day.
Series [8] has as its system Mus musculus. Briefly: Anti-inflammatory activity against C57BL/6J mouse model of TNFalpha-induced systemic inflammatory response syndrome (SIRS) assessed as decrease in […] IL-1beta level in heart at 1.25 to 5 mg/kg,po 2 hrs prior to mTNFalpha and z-VAD-FMK stimulation for 8 hrs by ELISA. The series is classed as functional, organism-based. Conditions: dose 1.25-5 mg/kg, time 10.0 hrs.

The nature of series [9]: Acute toxicity in mouse assessed as death at 100 to 200 mg/kg,IG and measured upto 14 days. In kind it is organism-based. The note with it: in vivo, po, 336 h, dose 100-200 mg/kg, time < 14 day.
For series [10], the system named is Mus musculus. Briefly: Anti-inflammatory activity against C57BL/6J mouse model of TNFalpha-induced systemic inflammatory response syndrome (SIRS) assessed as increase in body temperature at 5 mg/kg,po 2 hrs prior to mTNFalpha and z-VAD-FMK stimulation and measured upto 18 hrs by electric thermometer analysis. The note with it: time 20.0 hrs. The series is classed as functional, organism-based.

Receptor-interacting serine/threonine-protein kinase 3, sequence (Q9Y572 whole entry, looked up): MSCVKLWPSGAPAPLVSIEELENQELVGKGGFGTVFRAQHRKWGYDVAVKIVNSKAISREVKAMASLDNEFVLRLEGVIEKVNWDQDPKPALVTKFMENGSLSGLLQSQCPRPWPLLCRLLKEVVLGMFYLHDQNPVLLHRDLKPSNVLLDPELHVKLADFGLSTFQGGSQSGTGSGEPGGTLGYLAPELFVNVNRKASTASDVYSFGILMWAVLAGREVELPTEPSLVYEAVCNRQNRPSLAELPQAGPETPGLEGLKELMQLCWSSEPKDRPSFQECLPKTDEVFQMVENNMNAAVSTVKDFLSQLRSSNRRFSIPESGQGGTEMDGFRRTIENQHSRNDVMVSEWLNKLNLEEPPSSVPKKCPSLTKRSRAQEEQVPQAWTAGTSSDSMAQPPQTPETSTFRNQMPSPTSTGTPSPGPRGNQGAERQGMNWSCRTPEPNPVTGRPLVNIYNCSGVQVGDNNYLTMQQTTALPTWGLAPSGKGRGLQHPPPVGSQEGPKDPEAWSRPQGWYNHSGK

`O=C(Cc1cccc(OC(F)(F)F)c1)Nc1cc(-c2ccc3nc(NC(=O)C4CC4)sc3c2)ccc1F`: the inhibition result in [1] and in series [6] was “Active” each time. Further, the values for the Activity entry (in the series with Mus musculus [2]; in series [7]; in [9]) were “Dose-Dependent Effect”, “Non-Toxic” and “Non-Toxic”, respectively. The outcome in the series with HT-29 was inactive. For the same compound, the inhibition entry in [3] is “Dose-Dependent Effect”. Also, the outcome with Mus musculus [4], with Mus musculus [8] and in the series on Mus musculus [10] was Active. Also, in the series with Mus musculus [5], the survival at 2.5 mg/kg worked out at 80%.
